These results are taken from patent US8440837B2, “2-substituted-ethynylthiazole derivatives and uses of same” (H. Lundbeck A/S, priority 2009, dated 2013).

pEC50, pIC50: −log10 of the molar value.

Assay [1] has as its target human metabotropic glutamate receptor 5 (hmGluR5). Briefly: Calcium mobilization (FLIPR) assay, negative allosteric modulation of the EC80 glutamate response. The assay is classed as cell-based. The conditions noted are these: HEK 293 cells, inhibition of EC80 glutamate response. On the procedure: (§1) The cDNA for human metabotropic glutamate receptor 5 (hmGluR5) was a generous gift from S. Nakanishi (Kyoto University, Kyoto, Japan). The […] was stably expressed in a HEK 293 cell line and grown in Dulbecco's Modified Eagle Medium (DMEM) (Invitrogen, Carlsbad, Calif.) with supplements (10% bovine calf serum, 4 mM glutamine, 100 units/mL penicillin, 100 μg/mL streptomycin and […]) at 37° C., 5% CO2. Twenty-four hours prior to assay, cells were seeded into 384-well black wall microtiter plates coated with poly-D-lysine. Just prior to assay, media was aspirated and cells dye-loaded (25 μL/well) with 3 μM Fluo-4/0.01% pluronic acid in assay buffer (Hank's Balanced Saline Solution (HBSS)): 150 mM NaCl, 5 mM KCl, 1 mM CaCl2, 1 mM MgCl2, plus 20 mM N-2-Hydroxyethylpiperazine-N′-2-ethanesulfonic acid (HEPES), pH 7.4, 0.1% bovine serum albumin (BSA) and 2.5 mM probenicid) for 1 hour in 5% CO2 at 37° C. After excess dye was discarded, cells were washed in assay buffer and layered with a final volume equal to 30 μL/well. Basal fluorescence is monitored in a fluorometric imaging plate reader (FLIPR) (Molecular Devices, Sunnyvale, Calif.) with an excitation wavelength of 488 nm and an emission range of 500 to 560 nm. Laser excitation energy was adjusted so that basal fluorescence readings were approximately 10,000 relative fluorescent units. Cells were stimulated with an EC20 or an EC80 concentration of glutamate in the presence of a compound to be tested, both diluted in assay buffer, and relative fluorescent units were measured at defined intervals (exposure=0.6 sec) over a 3 min period at room temperature. Basal readings derived from negative controls were subtracted from all samples. Maximum change in fluorescence was calculated for each well. Concentration-response curves derived from the maximum change in fluorescence were analyzed by nonlinear regression (Hill equation).
A negative allosteric modulator (NAM) can be identified from these concentration-response curves if a compound produces a concentration dependent inhibition of the EC80 glutamate response.
(Calcium flux is commonly read through the fluorescence of an indicator in the cells.)

For assay [2], the target named is human metabotropic glutamate receptor 5 (hmGluR5) (UniProt P31424). Briefly: Calcium mobilization (FLIPR) assay, positive allosteric modulation of the EC20 glutamate response. The assay is classed as cell-based. The conditions noted are these: HEK 293 cells; for maximum modulation (Emax): EC20 glutamate response; for pEC50: increase in EC20 glutamate response. As for the experimental part:
as §1
A silent allosteric modulator (SAM) can be identified by using a combination of both the calcium mobilization assay data and the radioligand binding data. As used herein, the term “silent allosteric modulator” refers to a ligand that binds to an allosteric site of the receptor but has no measurable intrinsic efficacy.

Usually pIC50 stands for the negative decadic logarithm of the IC50, by convention in mol/L. The pEC50 is the negative decadic logarithm of the EC50, by convention in mol/L.

With `O=C(c1cnc(C#Cc2ccccc2)s1)N1CCCC1` [Example 4, (2-Phenylethynyl-thiazol-5-yl)-pyrrolidin-1-yl-methanone], the pIC50 in assay [1] was 8.49.
Consider `O=C(c1cnc(C#Cc2ccccc2)s1)N1CC[C@H](F)C1` [Example 5, ((S)-3-Fluoro-pyrrolidin-1-yl)-(2-phenylethynyl-thiazol-5-yl)-methanone], for which the negative-log IC50 (pIC50) in assay [1] is 8.49.
Turning to `O=C(c1cnc(C#Cc2ccccc2)s1)N1CC[C@@H](F)C1` [Example 6, ((R)-3-Fluoro-pyrrolidin-1-yl)-(2-phenylethynyl-thiazol-5-yl)-methanone], the pIC50 in assay [1] is 7.43.
Same read-out and setting: next, `Cc1nc(C#Cc2ccccc2)sc1C(=O)N1CCCCC1` [Example 13, (4-Methyl-2-phenylethynyl-thiazol-5-yl)-piperidin-1-yl-methanone]: 7.28.
Still for that read-out and setting: next, `Cc1nc(C#Cc2ccccc2)sc1C(=O)NC1CCCC1` [Example 16, 4-Methyl-2-phenylethynyl-thiazole-5-carboxylic acid cyclopentylamide]: 7.44; `O=C(c1cnc(C#Cc2cccc(F)c2)s1)N1CCCC1` [Example 21, [2-(3-Fluoro-phenylethynyl)-thiazol-5-yl]-pyrrolidin-1-yl-methanone]: 8.15; `Cc1cccc(C#Cc2ncc(C(=O)NC3CCCC3)s2)c1` [Example 24, 2-m-Tolylethynyl-thiazole-5-carboxylic acid cyclopentylamide]: 9.15.
As for `O=C(c1cnc(C#Cc2ccccc2)s1)N1CC(F)(F)C1` [Example 114, (3,3-Difluoro-azetidin-1-yl)-(2-phenylethynyl-thiazol-5-yl)-methanone], the negative-log IC50 (pIC50) in assay [1] is 7.27.
Same read-out and setting: as for `O=C(c1cnc(C#Cc2ccccc2)s1)N1CCC(F)(F)C1` [Example 115, (3,3-Difluoro-pyrrolidin-1-yl)-(2-phenylethynyl-thiazol-5-yl)-methanone], the figure is 7.51.
Same read-out and setting: next, `COCC1CCCN(C(=O)c2cnc(C#Cc3ccccc3)s2)C1` (centres unmarked) [Example 123, (3-Methoxymethyl-piperidin-1-yl)-(2-phenylethynyl-thiazol-5-yl)-methanone]: 7.48; `O=C(c1cnc(C#Cc2ccccc2)s1)N1C2CCC1CC2` [Example 145, (7-Aza-bicyclo[2.2.1]hept-7-yl)-(2-phenylethynyl-thiazol-5-yl)-methanone]: 8.30.
On to `COC[C@@H]1CCCN1C(=O)c1cnc(C#Cc2ccccc2)s1` [Example 168, ((S)-2-Methoxymethyl-pyrrolidin-1-yl)-(2-phenylethynyl-thiazol-5-yl)-methanone], for which the negative logarithm of the IC50 (pIC50) in assay [1] was 7.57.
Turning to `CC(C)(C)OC(=O)N1CC2CN(C(=O)c3cnc(C#Cc4ccccc4)s3)CC2C1` (centres unmarked) [Example 171, 5-(2-Phenylethynyl-thiazole-5-carbonyl)-hexahydro-pyrrolo[3,4-c]pyrrole-2-carboxylic acid tert-butyl ester], the negative-log IC50 (pIC50) in assay [1] was 7.60.
Same read-out and setting: next, `O=C(c1cnc(C#Cc2ccccc2)s1)N1CC2CNCC2C1` (centres unmarked) [Example 173, (Hexahydro-pyrrolo[3,4-c]pyrrol-2-yl)-(2-phenylethynyl-thiazol-5-yl)-methasone]: 6.36.
On to `O=C(c1cnc(C#Cc2ccsc2)s1)N1CCCCC1` [Example 190, Piperidin-1-yl-(2-thiophen-3-ylethynyl-thiazol-5-yl)-methanone], for which, in assay [2], the “maximum modulation (Emax)” value was 78% and the pEC50 was 8.28.
In the case of `O=C(c1cnc(C#Cc2ccccn2)s1)N1CCCCC1` [Example 191, Piperidin-1-yl-(2-pyridin-2-ylethynyl-thiazol-5-yl)-methanone], in assay [1], the negative-log IC50 (pIC50) was 7.54.
On to `COc1ccc(C#Cc2ncc(C(=O)N3CCCCC3)s2)cc1` [Example 192, [2-(4-Methoxy-phenylethynyl)-thiazol-5-yl]-piperidin-1-yl-methasone], for which, in assay [2], the “maximum modulation (Emax)” value was determined as 64% and the negative-log EC50 (pEC50) is 5.66.
`Cc1cccc(C#Cc2ncc(C(=O)N3CCCCC3)s2)n1` [Example 193, [2-(6-Methyl-pyridin-2-ylethynyl)-thiazol-5-yl]-piperidin-1-yl-methasone]: the pIC50 in assay [1] was 7.54.
On to `N#Cc1cccc(C#Cc2ncc(C(=O)N3CCCCC3)s2)c1` [Example 196, 3-[5-(Piperidine-1-carbonyl)-thiazol-2-ylethynyl]-benzonitrile], for which, in assay [2], the “maximum modulation (Emax)” value is 45% and the pEC50 was 7.92.
Consider `O=C(c1cnc(C#Cc2ccccn2)s1)N1CCCC1` [Example 198, (2-Pyridin-2-ylethynyl-thiazol-5-yl)-pyrrolidin-1-yl-methanone], for which the pIC50 in assay [1] was 7.70.
As to `O=C(c1cnc(C#CC2CCCCC2)s1)N1CCCCC1` [Example 200, (2-Cyclohexylethynyl-thiazol-5-yl)-piperidin-1-yl-methanone], in assay [2], the “maximum modulation (Emax)” value is given as 160% and the pEC50 is 6.29.
For `C(#Cc1ncc(CN2CCCCC2)s1)c1ccccc1` [Example 206, 1-(2-Phenylethynyl-thiazol-5-ylmethyl)-piperidine] the same measures were 130% and 7.01.
For `C(#Cc1ncc(CN2CCCC2)s1)c1ccccc1` [Example 207, 2-Phenylethynyl-5-pyrrolidin-1-ylmethyl-thiazole] the same measures were 110% and 6.66.
On to `CN(C)Cc1cnc(C#Cc2ccccc2)s1` [Example 212, Dimethyl-(2-phenylethynyl-thiazol-5-ylmethyl)-amine], for which, in assay [2], the “maximum modulation (Emax)” value worked out at 71% and the pEC50 is 7.43.
Regarding `COC1CN(Cc2cnc(C#Cc3ccccc3)s2)C1` [Example 214, 5-(3-Methoxy-azetidin-1-ylmethyl)-2-phenylethynyl-thiazole], in assay [2], the “maximum modulation (Emax)” value is reported as 120% and the negative logarithm of the EC50 (pEC50) was 6.12.
Turning to `C(#Cc1ncc(CN2CC3CCC2C3)s1)c1ccccc1` (centres unmarked) [Example 218, 2-(2-Phenylethynyl-thiazol-5-ylmethyl)-2-aza-bicyclo[2.2.1]heptane], in assay [2], the “maximum modulation (Emax)” value is reported as 79% and the pEC50 is 6.42.
The like results for `FC1(F)CCN(Cc2cnc(C#Cc3ccccc3)s2)CC1` [Example 223, 4,4-Difluoro-1-(2-phenylethynyl-thiazol-5-ylmethyl)-piperidine] were, in that order, 110% and 7.44.
The like results for `F[C@@H]1CCN(Cc2cnc(C#Cc3ccccc3)s2)C1` [Example 230, 5-((R)-3-Fluoro-pyrrolidin-1-ylmethyl)-2-phenylethynyl-thiazole] were, in that order, 110% and 7.48.
For `CC(c1cnc(C#Cc2ccccc2)s1)N1CCCCC1` (centres unmarked) [Example 231, 1-[1-(2-Phenylethynyl-thiazol-5-yl)-ethyl]-piperidine], the pIC50 in assay [1] was 6.15.
In the case of `CC(c1cnc(C#Cc2ccccc2)s1)N1CCOCC1` (centres unmarked) [Example 232, 4-[1-(2-Phenylethynyl-thiazol-5-yl)-ethyl]-morpholine], in assay [2], the “maximum modulation (Emax)” value was 62% and the pEC50 is 6.66.
With `OC(c1cnc(C#Cc2ccccc2)s1)C1CCCCC1` (centres unmarked) [Example 235, Cyclohexyl-(2-phenylethynyl-thiazol-5-yl)-methanol], in assay [2], the “maximum modulation (Emax)” value was found to be 50% and the negative logarithm of the EC50 (pEC50) is 7.28.
`O=C(c1ccccc1)c1cnc(C#Cc2ccccc2)s1` [Example 237, Phenyl-(2-phenylethynyl-thiazol-5-yl)-methanone]: the negative logarithm of the IC50 (pIC50) in assay [1] is 6.44.
For the compound `O=C(c1cnc(C#Cc2ccccc2)s1)C1CCCCC1` [Example 238, Cyclohexyl-(2-phenylethynyl-thiazol-5-yl)-methanone], in assay [2], the “maximum modulation (Emax)” value was determined as 130% and the pEC50 is 6.96.
As to `CC(=O)c1cnc(C#Cc2ccccc2)s1` [Example 239, 1-(2-Phenylethynyl-thiazol-5-yl)-ethanone], in assay [2], the “maximum modulation (Emax)” value came out at 170% and the pEC50 was 6.72.
Consider `CC(O)(c1ccccc1)c1cnc(C#Cc2ccccc2)s1` (centres unmarked) [Example 240, 1-Phenyl-1-(2-phenylethynyl-thiazol-5-yl)-ethanol], for which the negative-log IC50 (pIC50) in assay [1] is 6.85.
